From patent publication US20210128736A1, “STEREOCOMPLEX OF OLIGOLACTIC ACID CONJUGATES IN MICELLES FOR IMPROVED PHYSICAL STABILITY AND ENHANCED ANTITUMOR EFFICACY” (Wisconsin Alumni Research Foundation, priority 2018, published 2021)

How the values were obtained:
[1] = Stability in rat plasma at 37° C. (RP-HPLC); conditions: 24 hours
[2] = tested on: PANC-1 pancreatic cancer cells; assay: In vitro cytotoxicity, CellTiter-Blue Cell Viability Assay, PANC-1; format: cell-based; conditions: Homo sapiens; PANC-1 cells, 72 hours incubation; micelles at 15% loading
Description: (§1) In vitro cytotoxicity studies. […] A549 cells were seeded into a 96-well plate at a seeding density of 1,500 cells/100 μL/well and cultured in RPMI 1640 medium, or PANC-1 cells were seeded into a 96-well plate at a seeding density of 5,000 cells/100 μL/well and cultured in Dulbecco Modified Eagle Medium (DMEM), at 37° C. in 5% CO2 incubator for 24 h. […] Cells cultured with diluted PBS in medium was used as controls. Drug treated cells were placed in an incubator at 5% CO2 at 37° C. for 72 h. The medium in each well was aspirated, and 100 μL of 20% (v/v) CellTiter-Blue reagent in serum free RPMI 1640 or DMEM was added, followed by incubation at 37° C. in 5% CO2 atmosphere for 1.5 h. Fluorescence intensity was measured by a SpectraMax M2 plate reader (Molecular Devices, San Jose, Calif.) with excitation and emission at 560 and 590 nm, respectively. The half maximal inhibitory drug concentration (IC50) was determined by using GraphPad Prism version 5.00 for Windows (GraphPad Software, La Jolla, Calif.).

[3] = tested on: human A549 non-small lung cancer cells; assay: In vitro cytotoxicity, CellTiter-Blue Cell Viability Assay, A549; format: cell-based; conditions: 72 hours incubation, micelles at 15% loading
Description: as §1

[4] = tested on: A549 non-small cell lung cancer xenograft; assay: In vivo antitumor efficacy in A549 xenograft model; set-up: species or system female athymic nude mice; conditions: 3-weekly I.V. injections at 10 mg/kg equivalent of GEM; micelles 5% loading; vs saline control
Description: In vivo antitumor efficacy studies. […] 6-8 week-old female athymic nude mice (20-25 g each) were acquired from laboratory animal resources at School of Medicine and Public Health, University of Wisconsin-Madison. Mice were housed in ventilated cages with free access to water and food and acclimated for 1 week prior tumor cell injection. A549 cells (2×10^6 cells in 100 μL of serum-free RPMI 1640 medium) were harvested from sub-confluent cultures after trypsinization and were injected subcutaneously into the right flank of each mouse. […] Drugs were administered via tail vein for 3 weekly injections. Body weight and tumor volume were monitored over the course of study. Tumor volume was calculated using the formula: V=(a×b^2)/2, where V is tumor volume, a is tumor length, b is tumor width.

[5] = mice, reported; cited from earlier work
[6] = tested on: subcutaneous tumors; conditions: cited from earlier work

Structure (SMILES): Nc1ccn([C@@H]2O[C@H](CO)[C@@H](O)C2(F)F)c(=O)n1 [GEM, Gemcitabine]
- intact GEM detected after incubation in plasma [1]: less than 50%
- IC50 [2]: ~9.2 µM
- IC50 [3]: ~1.1 µM
- antitumor efficacy (tumor growth, relative tumor volume) [4]: not effective
- maximum tolerated doses (MTD) [5]: 100 mg/kg
- dose required to inhibit tumor growth ([6]; mice bearing subcutaneous tumors): 100 mg/kg
- efficacy against subcutaneous tumors ([6]; mice, GEM at 10 mg/kg): generally ineffective
